Experimental data: patent publication US20210393655A1, “Vesicular Formulations for Use in the Treatment of Pain or Reduced Mobility of a Joint” (Sequessome Technology Holdings Limited, priority 2012, published 2021)

What was measured:
Type in all cases: in vivo, human
[1] = tested on: patients with osteoarthritis of the knee; assay: Clinical trials in osteoarthritis of the knee: WOMAC physical function subscale
Procedure: (§1) One efficacy measure was the change from baseline to the end of the study in patients' perception of joint stiffness and physical function. In studies CL-033-III-03 and CL-033-III-06, joint stiffness was assessed using two single items describing the severity of stiffness, both of which were measured using an 11-point numerical rating (NRS) on the stiffness subscale of the Western Ontario and McMaster Universities (WOMAC) Osteoarthritis Index (version 3.1) instrument. A measure of physical function was performed in all six studies using the WOMAC Osteoarthritis Index (version 3.1), which consisted of 17 single items describing the difficulty in performing daily activities. Each item was rated on a VAS or an 11-point numerical scale.

[2] = tested on: patients with osteoarthritis of the knee; assay: Clinical trials in osteoarthritis of the knee: WOMAC stiffness subscale; details: study CL-033-III-03; end of 3 month treatment
Procedure: as §1, with “Six clinical trials were conducted with Formulation X on patients with osteoarthritis of the knee. One” for “One”

[3] = tested on: patients with osteoarthritis of the knee; assay: Clinical trial CL-033-III-03: WOMAC pain subscale
Procedure: as §1, with “Six clinical trials were conducted with Formulation X on patients with osteoarthritis of the knee. One” for “One”
Pain, joint mobility and physical function outcomes were compared in study CL-033-III-03.

[4] = oral celecoxib 100 mg b.i.d. (n = 233), 3 months, CL-033-III-03
[5] = study CL-033-III-03, end of 3 month treatment

Cc1ccc(-c2cc(C(F)(F)F)nn2-c2ccc(S(N)(=O)=O)cc2)cc1 [celecoxib]
Effect size versus oral placebo (Mann-Whitney estimator, MW), WOMAC function subscale score [1, 4]: MW = 0.5949 | Improvement in physical function (WOMAC function) [1, 5]: 38.2% | Reduction in stiffness (WOMAC stiffness) [2]: 37.9% | Effect size versus oral placebo (Mann-Whitney estimator, MW), WOMAC pain subscale score [3, 4]: MW = 0.5873 | Reduction in joint pain (WOMAC pain) [3, 5]: 40.4%
